Calls of active or inactive are those of the source. No rule for the calls is given here.
Test system: CCRIS mutagenicity, Ames/micronucleus/aberration tests
Assay: CCRIS mutagenicity studies
Conditions: Test System: AMES SALMONELLA TYPHIMURIUM

Measured: mutagenic call

O=C(O)CN(CCN(CC(=O)O)CC(=O)O)CC(=O)O
inactive: Strain/Indicator: TA97, Metabolic Activation: HAMSTER, LIVER, S-9, AROCLOR 1254 (10%), Method: PREINCUBATION inactive; negative | Strain/Indicator: TA97, Metabolic Activation: HAMSTER, LIVER, S-9, AROCLOR 1254 (30%), Method: PREINCUBATION inactive; negative | Strain/Indicator: TA97, Metabolic Activation: NONE, Method: PREINCUBATION inactive; negative | Strain/Indicator: TA97, Metabolic Activation: RAT, LIVER, S-9, AROCLOR 1254 (10%), Method: PREINCUBATION inactive; negative | Strain/Indicator: TA97, Metabolic Activation: RAT, LIVER, S-9, AROCLOR 1254 (30%), Method: PREINCUBATION inactive; negative | Strain/Indicator: TA97, Metabolic Activation: S-9, Method: PREINCUBATION inactive; negative | Strain/Indicator: TA98, Metabolic Activation: HAMSTER, LIVER, S-9, AROCLOR 1254 (10%), Method: PREINCUBATION inactive; negative | Strain/Indicator: TA98, Metabolic Activation: HAMSTER, LIVER, S-9, AROCLOR 1254 (30%), Method: PREINCUBATION inactive; negative | Strain/Indicator: TA98, Metabolic Activation: HAMSTER, LIVER, S-9, AROCLOR 1254, Method: STANDARD PLATE inactive; negative | Strain/Indicator: TA98, Metabolic Activation: NONE, Method: PREINCUBATION inactive; negative | Strain/Indicator: TA98, Metabolic Activation: NONE, Method: STANDARD PLATE inactive; negative | Strain/Indicator: TA98, Metabolic Activation: RAT LIVER S-9, PHENOBARBITAL AND BETA-NAPHTHOFLAVONE, Method: PREINCUBATION inactive; negative | Strain/Indicator: TA98, Metabolic Activation: RAT, LIVER, S-9, AROCLOR 1254 (10%), Method: PREINCUBATION inactive; negative | Strain/Indicator: TA98, Metabolic Activation: RAT, LIVER, S-9, AROCLOR 1254 (30%), Method: PREINCUBATION inactive; negative | Strain/Indicator: TA98, Metabolic Activation: RAT, LIVER, S-9, AROCLOR 1254, Method: STANDARD PLATE inactive; negative | Strain/Indicator: TA100, Metabolic Activation: HAMSTER, LIVER, S-9, AROCLOR 1254 (10%), Method: PREINCUBATION inactive; negative | Strain/Indicator: TA100, Metabolic Activation: HAMSTER, LIVER, S-9, AROCLOR 1254 (30%), Method: PREINCUBATION inactive; negative | Strain/Indicator: TA100, Metabolic Activation: HAMSTER, LIVER, S-9, AROCLOR 1254, Method: STANDARD PLATE inactive; negative | Strain/Indicator: TA100, Metabolic Activation: NONE, Method: PREINCUBATION inactive; negative | Strain/Indicator: TA100, Metabolic Activation: NONE, Method: STANDARD PLATE inactive; negative | Strain/Indicator: TA100, Metabolic Activation: RAT LIVER S-9, PHENOBARBITAL AND BETA-NAPHTHOFLAVONE, Method: PREINCUBATION inactive; negative | Strain/Indicator: TA100, Metabolic Activation: RAT, LIVER, S-9, AROCLOR 1254 (10%), Method: PREINCUBATION inactive; negative | Strain/Indicator: TA100, Metabolic Activation: RAT, LIVER, S-9, AROCLOR 1254 (30%), Method: PREINCUBATION inactive; negative | Strain/Indicator: TA100, Metabolic Activation: RAT, LIVER, S-9, AROCLOR 1254, Method: STANDARD PLATE inactive; negative | Strain/Indicator: TA102, Metabolic Activation: NONE, Method: PREINCUBATION inactive; negative | Strain/Indicator: TA102, Metabolic Activation: RAT LIVER S-9, PHENOBARBITAL AND BETA-NAPHTHOFLAVONE, Method: PREINCUBATION inactive; negative | Strain/Indicator: TA102, Metabolic Activation: S-9, Method: PREINCUBATION inactive; negative | Strain/Indicator: TA104, Metabolic Activation: NONE, Method: PREINCUBATION inactive; negative | Strain/Indicator: TA104, Metabolic Activation: RAT LIVER S-9, PHENOBARBITAL AND BETA-NAPHTHOFLAVONE, Method: PREINCUBATION inactive; negative | Strain/Indicator: TA1535, Metabolic Activation: HAMSTER, LIVER, S-9, AROCLOR 1254 (10%), Method: PREINCUBATION inactive; negative

Source: PubChem BioAssay AID1259407 (Chemical Carcinogenesis Research Information System (CCRIS), 2018)
